Tests used:
HT-29 cells = assay: Western blotting of EMT markers, HT-29; assay type: cell-based; conditions: 48 h
Method: For western blot analysis, cells were treated with the indicated inhibitors for 48 h and the whole cell extracts were obtained as described previously. Twenty micrograms of lysates were resolved on a 10% polyacrilamide SDS-PAGE followed by western blot analysis performed as previously described. For immunofluorescence assays cells were grown for 24 h on glass coverslips and treated with the indicated inhibitors for 48 h. Cells were fixed with 4% PFA for 15 min, permeabilized with 0.5% […] and incubated with E-cadherin antibody for 2 h. Coverslips were incubated with fluorescein-tagged secondary antibody (Dakopatts, Sweden) for […]. Finally coverslips were mounted with ProLong Gold antifade reagent (LifeTech, UK) and images were taken in epifluorescence microscope (Olympus) using 40× objective.

liver cancer HepG2 cells = assay: BrdU proliferation assay, HepG2; assay type: cell-based, human; conditions: 48 h
Method: For BrdU assays, 1×10^4 of indicated cells were plated per well into a 96-well plate. After 24 h, cells were treated with the indicated inhibitors for 48 h. Three independent experiments were plated with six replicates per each condition. Cells were treated with […] BrdU for 2 h. BrdU incorporation into newly synthesized DNA was measured using a cell proliferation colorimetric immunoassay kit according to the manufacturer's instructions (Roche, Switzerland). Results are expressed as mean±S.D. Results are represented as percentage of positive cells (mean±S.D) of three independent experiments.

O=C(O)c1ccc(-n2nnnc2SCC(=O)c2ccc([N+](=O)[O-])cc2)cc1 [Hakin-1, 4-(5-{[2-(4-nitrophenyl)-2-oxoethyl]thiol}-1H-tetrazol-1-yl)benzoic acid]
Cortactin expression levels (western blotting) (HT-29 cells): increase expression levels | E-cadherin levels (western blotting) (HT-29 cells): increase E-cadherin levels | mesenchymal Vimentin marker (western blotting) (HT-29 cells): reduced | cell proliferation (BrdU) (liver cancer HepG2 cells): inhibits cell proliferation
